How the values were obtained:
Assay type in all cases: binding
[1] = test system: double-stranded hairpin DNA: 5′-d(GGCAGAAGAAAAAGAGACGC)-C18 spacer-d(GCGTCTCTTTTTCTTCTGCC)-3′ (SEQ ID NO: 23); experiment: Melting temperature (Tm) measurement, triple strand-forming ability, with double-stranded hairpin DNA; settings: triplex with double-stranded hairpin DNA; for ΔTm/mod.: change per modification vs natural oligonucleotide; for Tm: footnote: 10 mM sodium phosphate buffer (pH 7.0), 200 mM NaCl, 5 mM MgCl2
Method: […] The sample solution was cooled to 15° C., and the measurement was started. The temperature was raised to 90° C. at a rate of 0.5° C. per minute, and the absorbance at 260 nm was plotted at intervals of 0.5° C. All Tm values were calculated by the midline method and the average of three independent measurement results was taken.

[2] = test system: single-stranded RNA: 5′-r(ACGAGAACAUCC)-3′ (SEQ ID NO: 11); experiment: Melting temperature (Tm) measurement, double strand-forming ability, with single-stranded RNA; settings: for Tm (N = A): Table 2, full-match RNA N = A, 10 mM sodium phosphate buffer; for Tm (N = A) / Tm: 200 mM NaCl; for Tm / ΔTm/mod.: duplex with single-stranded RNA SEQ ID NO: 11; for Tm: 10 mM phosphate buffer (pH7.0), 2.5 μM each oligonucleotide; for ΔTm/mod.: change per modification vs natural oligonucleotide
Method: (§1) A sample solution ([…]) with final concentrations of 10 mM phosphate buffer (pH7.0), 200 mM sodium chloride, and 2.5 μM each oligonucleotide was immersed in boiling water and slowly cooled to room temperature. The sample solution was cooled to 20° C., and the measurement was started. The temperature was raised to 90° C. at a rate of 0.5° C. per minute, and the absorbance at 260 nm was plotted at intervals of 0.5° C. All Tm values were calculated by the midline method and the average of three independent measurement results was taken.
(§2) conditions: 10 mM sodium phosphate buffer (pH7.0) containing 200 mM NaCl, […] of each strand

[3] = test system: single-stranded DNA: 5′-d(ACGAGAACATCC)-3′ (SEQ ID NO: 12); experiment: Melting temperature (Tm) measurement, double strand-forming ability, with single-stranded DNA; settings: duplex with single-stranded DNA SEQ ID NO: 12; for Tm: 10 mM phosphate buffer (pH7.0), 200 mM NaCl, 2.5 μM each oligonucleotide; for ΔTm/mod.: change per modification vs natural oligonucleotide
Method: as §1, §2

[4] = test system: single-stranded RNA:5′-r(ACGAGANCAUCC)-3′, N = G; experiment: Tm measurement with single-stranded RNA (base sequence identifying ability), N = G; settings: mismatch RNA N = G; for ΔTm (N = G), in parentheses: difference from N = A; for Tm (N = G): 10 mM sodium phosphate buffer, 200 mM NaCl
Method: as §1, §2

[5] = test system: single-stranded RNA:5′-r(ACGAGANCAUCC)-3′, N = C; experiment: Tm measurement with single-stranded RNA (base sequence identifying ability), N = C; settings: mismatch RNA N = C; for ΔTm (N = C), in parentheses: difference from N = A; for Tm (N = C): 10 mM sodium phosphate buffer, 200 mM NaCl
Method: as §1, §2

[6] = test system: single-stranded RNA:5′-r(ACGAGANCAUCC)-3′, N = U; experiment: Tm measurement with single-stranded RNA (base sequence identifying ability), N = U; settings: mismatch RNA N = U; for ΔTm (N = U), in parentheses: difference from N = A; for Tm (N = U): 10 mM sodium phosphate buffer, 200 mM NaCl
Method: as §1, §2

Row | Substance | ΔTm/mod. [1] | Tm [1] [°C] | Tm (N = A) [2] [°C] | Tm [2] [°C] | Tm [3] [°C] | ΔTm (N = G), in parentheses [4] | Tm (N = G) [4] [°C] | ΔTm (N = C), in parentheses [5] | Tm (N = C) [5] [°C] | ΔTm (N = U), in parentheses [6] | Tm (N = U) [6] [°C] | ΔTm/mod. [2] | ΔTm/mod. [3]
1 | 5′ -TCTTCYTYTYCTCT-3′: modified oligonucleotide with three separated Y modifications (DNA TCTTCTTTTTCTCT; three Y modified nucleotides; (2)..(2) 2′-Deoxy-5-methylcytidine; (5)..(5) 2′-Deoxy-5-methylcytidine; misc_difference (6)..(6) LNA; misc_difference (8)..(8) LNA; misc_difference (10)..(10) LNA; (11)..(11) 2′-Deoxy-5-methylcytidine; (13)..(13) 2′-Deoxy-5-methylcytidine) | +6.7 °C | 51 |  |  |  |  |  |  |  |  |  |  | 
2 | 5′ -TCTTCZTZTZCTCT-3′: modified oligonucleotide with three separated Z modifications (DNA TCTTCTTTTTCTCT; three Z modified nucleotides; (2)..(2) 2′-Deoxy-5-methylcytidine; (5)..(5) 2′-Deoxy-5-methylcytidine; misc_difference (6)..(6) ENA; misc_difference (8)..(8) ENA; misc_difference (10)..(10) ENA; (11)..(11) 2′-Deoxy-5-methylcytidine; (13)..(13) 2′-Deoxy-5-methylcytidine) | +6.7 °C | 51 |  |  |  |  |  |  |  |  |  |  | 
3 | 5′-GGATGTTCTCGT-3′: unmodified (natural) oligonucleotide, SEQ ID NO: 1 (unmodified DNA) |  |  | 52 | 52 | 51 | -4 º C. | 48 | -14 º C. | 38 | -12 º C. | 40 |  | 
4 | 5′-GGATGXTCTCGT-3′: modified oligonucleotide with one X modification; X not defined in the visible text (DNA GGATGTTCTCGT; DNA oligonucleotide with modified nucleotide X, X not given here, further chemistry not given here) |  |  | 58 | 58 | 53 | -5 º C. | 53 | -15 º C. | 43 | -14 º C. | 44 | +6.0 °C | +2.0 °C
5 | 5′-GGATGYTCTCGT-3′: modified oligonucleotide with one Y modification; Y not defined in the visible text (DNA GGATGTTCTCGT; Y modified nucleotide; misc_difference (6)..(6) LNA) |  |  | 58 | 58 | 54 | -5 º C. | 53 | -14 º C. | 44 | -13 º C. | 45 | +6.0 °C | +3.0 °C
6 | 5′-GGATGZTCTCGT-3′: modified oligonucleotide with one Z modification; Z not defined in the visible text (DNA GGATGTTCTCGT; Z modified nucleotide; misc_difference (6)..(6) ENA) |  |  | 58 | 58 | 52 | -4 º C. | 54 | -15 º C. | 43 | -13 º C. | 45 | +6.0 °C | +1.0 °C

Source: patent US12534493B2, “Bridged nucleoside and nucleotide” (Liid Pharmaceuticals, Inc., priority 2020, dated 2026)
